Assay results from patent publication US9526713B2, “Use of dencichine in preparation of drug for treating thrombocytopenia” (KUNMING SHENGHUO PHARMACEUTICAL (GROUP) CO., LTD., priority 2013, dated 2016).
Like-named read-outs stand apart in the source and are kept apart here.

Assays:
[1] = test system: rats with thrombocytopenia caused by carboplatin; assay: Platelet count of rats with thrombocytopenia caused by carboplatin, different prophylactic administration time; format: in vivo, rat
[2] = Body weight of rats suffering thrombopenia induced by carboplatin; format: in vivo, Wistar rats
Protocol: 81 rats are prepared and randomly divided into eight groups: • blank control group, • high-dose group A (4 mg/kg, intraperitoneal injection, non modeling), • model group (40 mg/kg, tail vein injection), • interleukin-11 group (260 μg/kg, subcutaneous injection), • high dose group B (4 mg/kg, intraperitoneal injection, modeling), • high dose group (4 mg/kg, intraperitoneal injection), • middle dose group (1 mg/kg, intraperitoneal injection), and • low dose group (0.25 mg/kg, intraperitoneal injection),
wherein, the Model group has 11 rats, and the other groups has 10 rats respectively. Before the experiment, the animals are asked to adapt the environment for 2 days, and then blood is taken from their tails for detecting hematological index.
After administration for 10 days, blood is taken from tails of rats from blank control group, high-dose group A, and positive drug group respectively for detecting hematological index.
Thereafter, all animals, except for those of blank group and high-dose group A, are individually injected with carboplatin (40 mg/kg) for modeling, and followed by successive administration for 15 days. During these 15 days, the rats of high-dose group A and high dose group B are stopped from administration, and taken blood from the tail on 5th day, 10th day and 15th day after the modeling respectively for detecting hematological indices. After 15th day of modeling, carboplatin (40 mg/kg) is injected again for a second modeling, and all the groups take successive administration according to the foregoing method, once a day for successive 10 days. Before each hematological indices detection, animals are weighed respectively. Taking the tails' blood of rats on 5th day after the second injection of carboplatin for detecting hematological indices, and taking the tails' blood of rats on 10th day after the second injection of carboplatin for detecting the indices of hematology, reticulocytes and coagulation; and weighing animals and killing them; and weighing liver, thymus, spleen and adrenal gland taken from the dead rats, and calculating out viscera indices; further taking out marrow for doing pathological examination.

[3] = format: in vivo, BALB/C mice
Protocol: (§1) Health BALB/C mice (body weight 18˜22 g) are randomly divided into six groups with 12 mice for each group:
(§2) Except the normal group, the mice of the remain five groups are injected with anti-mouse platelet serum (APS) of the guinea pig with a dose of 100 μl/20 g body weight, via intraperitoneal injection, on the 1st, 3rd, 5th, 7th, 9th, 11th and 13th day of the experiment.
The mice of each group are given intragastric administration from the first day. […] The mice of the prednisone acetate group are given intragastric administration of suspension of prednisone acetate at 5 mg/(kg·d). The mice of other groups are given intragastric administration of same volumetric of normal saline at 0.2 ml/20 g body weight. Intragastric administration for once each day, and continuous administration for 14 days.
The weights of mice of each group are respectively measured before modeling, on 7th test day, and on 14th test day.

ITP model mice = format: in vivo, BALB/C mice
Protocol: as §1, §2
The mice of each group are given intragastric administration from the first day. The mice of the dencichine high dose, middle-dose and low dose groups are given intragastric administration at […] respectively. The mice of the prednisone acetate group are given intragastric administration of suspension of prednisone acetate at 5 mg/(kg·d). The mice of other groups are given intragastric administration of same volumetric of normal saline at 0.2 ml/20 g body weight. Intragastric administration for once each day, and continuous administration for 14 days.
20 μl Blood was collected from orbital veins of each mouse of each group before Modeling and on 14th test day respectively, and dropped into anticoagulative tubes, then platelet count was detected by an automated blood analyzers.

thrombocyte aggregation = assay: Thrombocyte aggregation rate of rats injected with carboplatin; format: in vivo, rat
Text: So far, it has been reported that a little dencichine can be used as hemostatic drug in prior art, as disclosed in the patent application with publication No. CN1292376A that administrating a little dencichine can achieve hemostasis. However, it has never been reported that dencichine is able to treat Thrombocytopenia.

female mouse = details: cited from earlier work

For N[C@@H](CNC(=O)C(=O)O)C(=O)O [Dencichine, β-N-oxalyl-L-α, β-diaminopropionic acid], which “platelet count compared with that of model group” value ([1]; prophylactic administration for 3 days) is on record?
Its value is “no significant difference”.

What about the platelet count ([1]; prophylactic administration for 3 days, after prophylactic administration) of the same molecule?
Its platelet count is 656.3 ± 67.35 ×10^9/L.

And the platelet count ([1]; prophylactic administration for 3 days, initial value)?
The platelet count was 717.5 ± 276.94 ×10^9/L.

What about the platelet count ([1]; prophylactic administration for 3 days, injection of carboplatin for 10 days) of the same molecule?
Its platelet count is 110.2 ± 40.43 ×10^9/L.

And the “platelet count compared with that of model group” value ([1]; prophylactic administration for 5 days and 7 days)?
The value was “increase the platelet count”.

And the platelet count ([1]; prophylactic administration for 5 days, after prophylactic administration)?
Its platelet count is 773.2 ± 142.02 ×10^9/L.

And the platelet count ([1]; prophylactic administration for 5 days, initial value)?
Its platelet count is 736.2 ± 182.37 ×10^9/L.

What about the platelet count ([1]; prophylactic administration for 5 days, injection of carboplatin for 10 days) of the same molecule?
The platelet count was 176.2 ± 28.34 ×10^9/L.

And the platelet count ([1]; prophylactic administration for 7 days, after prophylactic administration)?
Its platelet count is 772.8 ± 70.63 ×10^9/L.

What about the platelet count ([1]; prophylactic administration for 7 days, initial value) of the same molecule?
The platelet count was 743.7 ± 226.92 ×10^9/L.

And the platelet count ([1]; prophylactic administration for 7 days, injection of carboplatin for 10 days)?
The platelet count was 166.2 ± 18.20 ×10^9/L.

What about the “body weight gain compared with control group” value ([2]; high dose group A, 4 mg/kg i.p., non modeling) of the same molecule?
Its value is “slower body weight gain”.

What about the body weight ([2]; high dose group A, 4 mg/kg i.p., non modeling, 5th day after first injection of carboplatin) of the same molecule?
The body weight was 303.5 ± 17.17 g.

What about the body weight ([2]; high dose group A, 4 mg/kg i.p., non modeling, 5th day after second injection of carboplatin) of the same molecule?
Its body weight is 360.7 ± 24.05 g.

What about the body weight ([2]; high dose group A, 4 mg/kg i.p., non modeling, 10th day after first injection of carboplatin) of the same molecule?
The body weight was 315.0 ± 17.29 g.

What about the body weight ([2]; high dose group A, 4 mg/kg i.p., non modeling, 10th day after second injection of carboplatin) of the same molecule?
The body weight was 362.8 ± 28.63 g.

And the body weight ([2]; high dose group A, 4 mg/kg i.p., non modeling, 15th day after first injection of carboplatin)?
The body weight was 342.5 ± 19.93 g.

And the body weight ([2]; high dose group A, 4 mg/kg i.p., non modeling, before experiment)?
Its body weight is 187.5 ± 7.37 g.

What about the body weight ([2]; high dose group A, 4 mg/kg i.p., non modeling, prophylactic administration for 10 days) of the same molecule?
Its body weight is 281.1 ± 13.19 g.

And the body weight ([2]; high dose group B, 4 mg/kg i.p., prophylactic, modeling, 5th day after first injection of carboplatin)?
The body weight was 289.9 ± 18.16 g.

And the body weight ([2]; high dose group B, 4 mg/kg i.p., prophylactic, modeling, 5th day after second injection of carboplatin)?
Its body weight is 317.8 ± 25.87 g.

And the body weight ([2]; high dose group B, 4 mg/kg i.p., prophylactic, modeling, 10th day after first injection of carboplatin)?
The body weight was 308.2 ± 16.69 g.

What about the body weight ([2]; high dose group B, 4 mg/kg i.p., prophylactic, modeling, 10th day after second injection of carboplatin) of the same molecule?
The body weight was 314.7 ± 28.71 g.

And the body weight ([2]; high dose group B, 4 mg/kg i.p., prophylactic, modeling, 15th day after first injection of carboplatin)?
Its body weight is 318.7 ± 17.76 g.

And the body weight ([2]; high dose group B, 4 mg/kg i.p., prophylactic, modeling, before experiment)?
Its body weight is 187.6 ± 9.46 g.

What about the body weight ([2]; high dose group B, 4 mg/kg i.p., prophylactic, modeling, prophylactic administration for 10 days) of the same molecule?
The body weight was 284.7 ± 15.43 g.

What about the body weight ([2]; high dose group, 4 mg/kg i.p., 5th day after first injection of carboplatin) of the same molecule?
Its body weight is 298.8 ± 24.10 g.

And the body weight ([2]; high dose group, 4 mg/kg i.p., 5th day after second injection of carboplatin)?
Its body weight is 324.6 ± 23.20 g.

What about the body weight ([2]; high dose group, 4 mg/kg i.p., 10th day after first injection of carboplatin) of the same molecule?
The body weight was 314.0 ± 27.14 g.

And the body weight ([2]; high dose group, 4 mg/kg i.p., 10th day after second injection of carboplatin)?
Its body weight is 316.6 ± 15.35 g.

And the body weight ([2]; high dose group, 4 mg/kg i.p., 15th day after first injection of carboplatin)?
Its body weight is 341.8 ± 32.01 g.

What about the body weight ([2]; high dose group, 4 mg/kg i.p., before experiment) of the same molecule?
The body weight was 188.8 ± 9.64 g.

What about the body weight ([2]; high dose group, 4 mg/kg i.p., prophylactic administration for 10 days) of the same molecule?
Its body weight is 285.8 ± 20.94 g.

And the body weight ([2]; low dose group, 0.25 mg/kg i.p., 5th day after first injection of carboplatin)?
The body weight was 302.6 g.

What about the body weight ([2]; low dose group, 0.25 mg/kg i.p., 5th day after second injection of carboplatin) of the same molecule?
The body weight was 325.9 g.

What about the body weight ([2]; low dose group, 0.25 mg/kg i.p., 10th day after first injection of carboplatin) of the same molecule?
The body weight was 317.2 g.

And the body weight ([2]; low dose group, 0.25 mg/kg i.p., 10th day after second injection of carboplatin)?
Its body weight is 325.2 g.

And the body weight ([2]; low dose group, 0.25 mg/kg i.p., 15th day after first injection of carboplatin)?
Its body weight is 343.2 g.

And the body weight ([2]; low dose group, 0.25 mg/kg i.p., before experiment)?
Its body weight is 189.6 g.

What about the body weight ([2]; low dose group, 0.25 mg/kg i.p., prophylactic administration for 10 days) of the same molecule?
The body weight was 288.7 g.

And the body weight ([2]; middle dose group, 1 mg/kg i.p., 5th day after first injection of carboplatin)?
The body weight was 291.5 ± 26.18 g.

And the body weight ([2]; middle dose group, 1 mg/kg i.p., 5th day after second injection of carboplatin)?
The body weight was 328.0 ± 33.38 g.

And the body weight ([2]; middle dose group, 1 mg/kg i.p., 10th day after first injection of carboplatin)?
The body weight was 315.0 ± 19.28 g.

What about the body weight ([2]; middle dose group, 1 mg/kg i.p., 10th day after second injection of carboplatin) of the same molecule?
The body weight was 334.0 ± 28.15 g.

What about the body weight ([2]; middle dose group, 1 mg/kg i.p., 15th day after first injection of carboplatin) of the same molecule?
Its body weight is 329.8 ± 23.77 g.

What about the body weight ([2]; middle dose group, 1 mg/kg i.p., before experiment) of the same molecule?
The body weight was 186.2 ± 11.31 g.

What about the body weight ([2]; middle dose group, 1 mg/kg i.p., prophylactic administration for 10 days) of the same molecule?
Its body weight is 282.8 ± 17.29 g.

And the body weight ([3]; high dose group (6 mg/kg per Table 8) intragastric, Day 0)?
The body weight was 19.5 ± 1.5 g.

What about the body weight ([3]; high dose group (6 mg/kg per Table 8) intragastric, Day 7) of the same molecule?
Its body weight is 19.8 ± 1.4 g.

What about the body weight ([3]; high dose group (6 mg/kg per Table 8) intragastric, Day 14) of the same molecule?
Its body weight is 20.3 ± 1.8 g.

What about the body weight ([3]; low dose group (1.5 mg/kg per Table 8) intragastric, Day 0) of the same molecule?
The body weight was 20.2 ± 2.0 g.

What about the body weight ([3]; low dose group (1.5 mg/kg per Table 8) intragastric, Day 7) of the same molecule?
The body weight was 20.4 ± 1.5 g.

And the body weight ([3]; low dose group (1.5 mg/kg per Table 8) intragastric, Day 14)?
Its body weight is 21.1 ± 1.6 g.

What about the body weight ([3]; middle dose group (3 mg/kg) intragastric, Day 0) of the same molecule?
The body weight was 19.9 ± 1.9 g.

What about the body weight ([3]; middle dose group (3 mg/kg) intragastric, Day 7) of the same molecule?
Its body weight is 20.1 ± 1.7 g.

What about the body weight ([3]; middle dose group (3 mg/kg) intragastric, Day 14) of the same molecule?
The body weight was 20.8 ± 1.7 g.

What about the platelet count (ITP model mice; high dose 6 mg/kg intragastric, Before Modeling) of the same molecule?
Its platelet count is 751.4 ± 114.3 ×10^9/L.

What about the platelet count (ITP model mice; high dose 6 mg/kg intragastric, Day 14) of the same molecule?
Its platelet count is 542.1 ± 95.4 ×10^9/L.

What about the platelet count (ITP model mice; low dose 1.5 mg/kg intragastric, Before Modeling) of the same molecule?
The platelet count was 745.1 ± 139.6 ×10^9/L.

And the platelet count (ITP model mice; low dose 1.5 mg/kg intragastric, Day 14)?
Its platelet count is 428.2 ± 75.1 ×10^9/L.

And the platelet count (ITP model mice; middle dose 3 mg/kg intragastric, Before Modeling)?
Its platelet count is 749.2 ± 147.5 ×10^9/L.

What about the platelet count (ITP model mice; middle dose 3 mg/kg intragastric, Day 14) of the same molecule?
The platelet count was 484.8 ± 78.4 ×10^9/L.

What about the thrombocyte aggregation rate (thrombocyte aggregation) of the same molecule?
The thrombocyte aggregation rate was “increasing thrombocyte aggregation rate”.

And the “increase of the platelet count” value (female mouse; 1 mg in 0.5 ml Ringer-Locke solution, injected into abdominal cavity of a female mouse)?
Its value is 30%.

What about the “effect on the hemostasis and increase of platelet count” value (female mouse; Zhao Guoqiang et al., 1984) of the same molecule?
Its value is “significant effect”.
